Measured values taken from patent publication US20170049781A1, “HSP90 INHIBITOR COMBINATIONS” (Novartis AG, priority 2008, published 2017).

Legend:
Assay type in all cases: cell-based, human
[1] = system: phosphorylated AKT (P-AKT(S473) and P-AKT(T308)); assay: Western blot of AKT phosphorylation in BT474 breast tumor cells
Procedure: (§1) Two cancer derived cell lines are used (BT474 and MDA-MB-231). These are human breast carcinoma cell lines. The cell lines are commercially available from American Type Culture Collection (ATCC). BT474 cells are maintained in Hybri-Care medium (ATCC) supplemented with 10% v/v fetal calf serum and 2 mM L-glutamine. MDB-MB-231 cells are grown in RPMI 1640 medium (Animed, Allschwil, Switzerland) supplemented with 10% v/v fetal calf serum and 2 mM L-glutamine. The media are supplemented with 100 microgramm/ml penicillin/streptomycin and cells are maintained at 37° C. in 5% CO2.
(§2) After division and medium change, cells from stock culture are seeded at a density of 3.3×10^4 cells/cm^2 (BT474) and 1.2×10^4 cells/cm^2 (MDB-MB-231) on cell plates and incubated for 48 hours at 37° C. and 5% CO2 prior to the treatment with DMSO vehicle, 20 nM everolimus (RAD001) and/or various concentrations of AUY922 (compound 1) for 24 hours. To prepare cell lysates culture plates are washed once with ice-cold phosphor buffered saline (PBS) containing 1 mM phenylmethylsulfonyl fluoride (PMSF) and once with ice-cold extraction buffer (50 mM Hepes pH 7.4, 150 mM NaCl, 25 mM beta-glycerophosphate, 25 mM NaF, 5 mM EGTA, 1 mM EDTA, 15 mM PPi, 2 mM sodium orthovanadate, 10 mM sodium molybdate, leupeptin (10 microgramm/ml), aprotinin (10 microgramm/ml), 1 mM DTT and 1 mM PMSF. Cells are extracted in the same buffer, containing 1% NP-40. The extracts are homogenized, cleared by centrifugation, aliquoted and frozen at −80° C. Protein concentration is determined with the BCA Protein Assay (Pierce, Rockford, Ill., USA).
(§3) Twenty micrograms of cell extracts are resolved electrophoretically on 12% denaturing sodium dodecyl sulfate polyacrylamide gels (SDS-PAGE) and transferred to polyvinylidene difluoride filters by wet-blotting (1 hour at 250 mA) and probed overnight at 4° C. with the following primary antibodies:
(§4) anti-phospho-Akt (Ser473) (clone 14-05; 1:2000) obtained from DAKO (Glostrup, Denmark) and diluted in PBS, 0.5% v/v Tween. […]

[2] = system: phosphorylated AKT (P-AKT(S473), T308); assay: Western blot of AKT phosphorylation in MDA-MB-231 breast tumor cells; conditions: MDA-MB-231 cells
Procedure: as §1, §2, §3, §4

AKT = assay: Western blot of AKT levels in MDA-MB-231 breast tumor cells; conditions: MDA-MB-231 cells, 100 nM Compound I
Procedure: as §1
After division and medium change, cells from stock culture are seeded at a density of 3.3×10^4 cells/cm^2 (BT474) and 1.2×10^4 cells/cm^2 (MDB-MB-231) on cell plates and incubated for 48 hours at 37° C. and 5% CO2 prior to the treatment with DMSO vehicle, 20 nM everolimus (RAD001) and/or various concentrations of AUY922 (compound 1) for 24 hours. […]

SMILES	AKT phosphorylation (P-AKT(S473) and P-AKT(T308)) on addition of RAD001 in the presence of compound I ([1]; BT474 cells, 20 nM RAD001 in the presence of 50-100 nM compound I (combination))	levels of phosphorylated AKT (P-AKT(S473) and P-AKT(T308)) compared to an untreated control ([1]; BT-474 cells, 20 nM RAD001, 24 hours)	levels of phosphorylated AKT (P-AKT(S473)) compared to an untreated control ([2]; 20 nM RAD001, 24 hours)	phosphorylation of AKT at amino acid residue T308 on addition of RAD001 in the presence of compound I ([2]; 20 nM RAD001 in the presence of 50-100 nM compound I (combination))	AKT phosphorylation (P-AKT(S473) and P-AKT(T308)) ([1]; BT474 cells, 50-100 nM compound I, 24 hours)	AKT levels (AKT)	AKT phosphorylation (P-AKT(S473)) ([2]; 50-100 nM compound I, 24 hours)
CO[C@H]1C[C@@H]2CC[C@@H](C)[C@@](O)(O2)C(=O)C(=O)N2CCCC[C@H]2C(=O)O[C@H]([C@H](C)C[C@@H]2CC[C@@H](OCCO)[C@H](OC)C2)CC(=O)[C@H](C)/C=C(\C)[C@@H](O)[C@@H](OC)C(=O)[C@H](C)C[C@H](C)/C=C/C=C/C=C/1C [RAD001, 40-O-(2-hydroxyethyl)-rapamycin]	did not cause increase in AKT phosphorylation	increased levels of phosphorylated AKT	increased levels of phosphorylated AKT	did not cause increased phosphorylation of AKT			
COc1cccc(-c2ccccc2[C@H]2Cc3nc(N)nc(C)c3C(=O)N2)n1 [compound I, (R)-2-amino-7-[2-(6-methoxy-pyridin-2-yl)-phenyl]-4-methyl-7,8-dihydro-6H-pyrido[4,3-d]pyrimidin-5-one]					diminished	slightly decreased	diminished
